Measured values: ChEMBL document CHEMBL1201862, “PubChem BioAssay data set” (2004)
pIC50: −log10 of the molar value. Active and inactive are the calls of the source.

What was measured:
[1] = target: Kallikrein-7 (Homo sapiens, UniProt P49862); assay: Fluorescence Intensity-based biochemical primary high throughput dose response assay to identify activators of kallikrein-7 (K7) zymogen.
[2] = P. falciparum late gametocyte killing, dose response, luminescence (AID 1117278); format: functional, cell-based;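 further: gametocytes exposed to compound for 24 hours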
[3] = Jurkat T cell cytotoxicity, dose response, cytotoxicity control for P. falciparum gametocyte viability project, luminescence (AID 1117277); format: functional, cell-based;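 further: potency reflects loss of cellular ATP meaning fewer viable cells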
[4] = target: COUP transcription factor 2 (Homo sapiens, UniProt P24468); assay: Luminescence-based cell-based high throughput dose response assay to identify inhibitors of COUP-TFII (NR2F2).; format: functional;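 further: HEK293 cells transiently cotransfected with COUP-TFII expression vector and reporter; luciferase reporter luminescence driven by COUP-TFII from the pX2-168 reporter plasmid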
[5] = target: Protein-tyrosine kinase 2-beta (Homo sapiens, UniProt Q14289);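 further: potency of inhibitors of PYK2 kinase phosphorylation of poly-GT substrate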
[6] = target: Nonstructural protein 1 (Influenza A virus, UniProt Q194T2); format: functional, Influenza A virus (A/California/07/2009(H1N1))
[7] = cytotoxicity in HPDE-C7 cells, cell-based, fluorescence, HTS (AID 430); format: functional; settings: Homo sapiens
[8] = cytotoxicity in KRAS-transformed pancreatic duct cells, primary screen, cell-based, fluorescence, HTS (AID 431); format: functional; settings: Homo sapiens;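 further: cell line used: HPDE-C7K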
[9] = ADAM10 inhibitors, peptide cleavage, dose response, biochemical, QFRET (AID 743254);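 further: ADAM10 enzyme with the DM2 quenched FRET peptide as substrate; EDANS fluorescence gain as the protease cuts the substrate; inhibitor potency against ADAM10 proteolytic activity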
[10] = target: Metabotropic glutamate receptor 3 (Rattus norvegicus, UniProt P31422); assay: mGlu3 negative allosteric modulator potency, dose response, HEK/GIRK cells, thallium flux, rat (AID 651839); format: functional
[11] = target: T1, Low molecular weight phosphotyrosine protein phosphatase (Homo sapiens, UniProt P24666); assay: LMPTP phosphatase inhibitors, dose response, biochemical, OMFP substrate, fluorescence intensity, set 2 (AID 743307); format: functional
T1 sequence (P24666 whole entry): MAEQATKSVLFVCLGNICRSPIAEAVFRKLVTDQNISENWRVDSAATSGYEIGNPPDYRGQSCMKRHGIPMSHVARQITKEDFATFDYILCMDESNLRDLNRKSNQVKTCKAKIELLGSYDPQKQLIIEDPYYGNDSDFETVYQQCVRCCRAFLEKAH

[12] = target: T1, Low molecular weight phosphotyrosine protein phosphatase; assay: LMPTP phosphatase inhibitors, colorimetric pNPP readout, dose response, orthogonal assay, biochemical, absorbance, pNPP substrate, LMPTP-A isoform, set 2 (AID 743308); format: functional
[13] = target: Ephrin type-A receptor 4 (Mus musculus, UniProt Q03137); assay: inhibitors of EphA4 binding to KYL peptide, primary screen, biochemical, colorimetric, mouse EphA4 (AID 689); format: functional
[14] = target: Voltage-dependent T-type calcium channel subunit alpha-1H (Homo sapiens, UniProt O95180); format: functional;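 further: channel activity triggered by adding a high calcium stimulation buffer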
[15] = target: Cytochrome P450 2C19 (Homo sapiens, UniProt P33261); assay: Cytochrome panel assay with activity outcomes. Panel member name: p450-cyp2c19 Compounds with AC50 equal or less than 10 uM are considered active; format: functional; settings: read-out: AC50
[16] = target: Cytochrome P450 3A4 (Homo sapiens, UniProt P08684);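 further: CYP3A4 tested as one member of a cytochrome P450 panel screen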
[17] = target: 5-hydroxytryptamine receptor 1A (Homo sapiens, UniProt P08908); format: functional
[18] = target: T2, RNA-binding protein pos-1 (Caenorhabditis elegans, UniProt G5EF15); assay: inhibitors of POS-1/mex-3 RNA binding, dose response, biochemical, fluorescence polarization (AID 1964);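 further: purified POS-1 fused to maltose binding protein made in E. coli; potency of compounds blocking POS-1 binding to fluorescent RNA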
T2 sequence (G5EF15 whole entry): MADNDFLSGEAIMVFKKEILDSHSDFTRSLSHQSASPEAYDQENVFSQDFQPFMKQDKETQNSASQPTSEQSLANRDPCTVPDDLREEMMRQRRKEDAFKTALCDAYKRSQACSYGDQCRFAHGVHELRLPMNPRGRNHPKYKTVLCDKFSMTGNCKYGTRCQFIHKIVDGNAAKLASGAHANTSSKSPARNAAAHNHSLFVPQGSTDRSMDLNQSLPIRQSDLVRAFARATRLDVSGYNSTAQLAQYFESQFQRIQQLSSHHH

[19] = target: T3, Zinc finger protein mex-5 (Caenorhabditis elegans, UniProt Q9XUB2); assay: MEX-5/TCR-2 RNA interaction inhibitors, dose response, biochemical, C. elegans, fluorescence polarization (AID 1960)
T3 sequence (Q9XUB2 whole entry): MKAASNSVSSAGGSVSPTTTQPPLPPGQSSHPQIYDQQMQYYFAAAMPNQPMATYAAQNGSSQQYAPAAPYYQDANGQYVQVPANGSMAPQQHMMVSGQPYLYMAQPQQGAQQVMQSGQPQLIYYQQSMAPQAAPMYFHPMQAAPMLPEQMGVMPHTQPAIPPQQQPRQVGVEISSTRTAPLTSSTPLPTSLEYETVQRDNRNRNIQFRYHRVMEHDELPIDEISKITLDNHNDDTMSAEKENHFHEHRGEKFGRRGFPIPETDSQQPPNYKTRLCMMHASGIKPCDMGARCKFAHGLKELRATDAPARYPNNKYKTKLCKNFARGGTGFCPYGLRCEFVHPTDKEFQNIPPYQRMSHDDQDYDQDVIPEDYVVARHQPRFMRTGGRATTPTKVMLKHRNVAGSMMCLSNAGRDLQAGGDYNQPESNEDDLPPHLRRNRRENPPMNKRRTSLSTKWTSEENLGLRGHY

[20] = target: Mitogen-activated protein kinase 10 (Homo sapiens, UniProt P53779); assay: Dose response biochemical screening assay for inhibitors of c-Jun N-Terminal Kinase 3 (JNK3). [Related pubchem assays: 746 ]
[21] = target: T4, Oxysterols receptor LXR-beta (Homo sapiens, UniProt P55055); format: functional, cell-based;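 further: Cell-based luminescence dose-response assay of agonist activity at LXR, run as a confirmatory counterscreen to a daf-12 agonist screen; HEK293 cells with Gal4-LXR fusion and GAL4-driven luciferase reporter; agonist potency from rising luciferase signal of a Gal4-LXR reporter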
T4 sequence (P55055 whole entry): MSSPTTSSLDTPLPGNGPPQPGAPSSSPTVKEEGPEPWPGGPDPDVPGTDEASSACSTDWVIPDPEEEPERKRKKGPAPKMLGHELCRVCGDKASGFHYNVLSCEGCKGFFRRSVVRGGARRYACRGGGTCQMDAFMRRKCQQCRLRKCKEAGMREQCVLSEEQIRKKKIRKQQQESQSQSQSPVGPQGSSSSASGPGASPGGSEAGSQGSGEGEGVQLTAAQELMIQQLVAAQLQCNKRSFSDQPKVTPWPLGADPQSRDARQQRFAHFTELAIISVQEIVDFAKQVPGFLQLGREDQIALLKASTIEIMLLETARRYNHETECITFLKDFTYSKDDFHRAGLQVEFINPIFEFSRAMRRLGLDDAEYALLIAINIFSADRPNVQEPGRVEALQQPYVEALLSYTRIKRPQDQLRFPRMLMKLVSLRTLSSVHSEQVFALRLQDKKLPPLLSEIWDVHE

[22] = cells
[23] = inhibitors of intracellular T. cruzi replication, confirmation, NIH3T3 host cells, beta-gal luminescence (AID 2044); format: functional, cell-based;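 further: intracellular parasites grown in NIH/3T3 mouse fibroblasts as host cells; luminescent beta-galactosidase reporter signal from transgenic T. cruzi replicating inside host cells; inhibitors lower the luminescence signal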
[24] = cytotoxicity toward NIH3T3 fibroblasts, dose response, counter-screen, cell-based, ATP luminescence, mouse fibroblasts (AID 2010); format: functional;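 further: cells exposed to compound for about 90 hours before reading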
[25] = cells; remark: listed apart in the source
[26] = target: Paired box protein Pax-8 (Homo sapiens, UniProt Q06710); assay: inhibitors of PAX8-driven TPO luciferase reporter, dose response, RMG-I cells, cherry-pick (AID 687027); format: functional, cell-based;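 further: luciferase reporter driven by Pax8 target thyroperoxidase promoter measured by SteadyGlo luminescence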
[27] = NIH:OVCAR-3 ovarian cancer cell cytotoxicity, dose response, PAX8 inhibitor project, plate reader, dry powder samples (AID 743044); format: functional, cell-based
[28] = HEK293T cytotoxicity, dose response, cytotoxicity control for miR-122 modulator project, cell-based, inhibitor set, cherry-pick, set 2 (AID 720697); format: functional
[29] = HEK293T cytotoxicity, dose response, cytotoxicity control for miR-122 modulator project, cell-based, activator set, cherry-pick (AID 720690); format: functional;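 further: HEK293T human cells scored for general mammalian cytotoxicity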
[30] = cytotoxicity in OVCAR8 ovarian cancer cells, dose response, PAX8 project, cell-based, plate reader, dry powder samples (AID 743197); format: functional; settings: OVCAR-8
[31] = target: T5, Galanin receptor type 3 (Homo sapiens, UniProt O60755); assay: Fluorescence-based cell-based primary high throughput dose response assay to identify antagonists of the Galanin Receptor 3 (GalR3).; format: functional
T5 sequence (O60755 whole entry): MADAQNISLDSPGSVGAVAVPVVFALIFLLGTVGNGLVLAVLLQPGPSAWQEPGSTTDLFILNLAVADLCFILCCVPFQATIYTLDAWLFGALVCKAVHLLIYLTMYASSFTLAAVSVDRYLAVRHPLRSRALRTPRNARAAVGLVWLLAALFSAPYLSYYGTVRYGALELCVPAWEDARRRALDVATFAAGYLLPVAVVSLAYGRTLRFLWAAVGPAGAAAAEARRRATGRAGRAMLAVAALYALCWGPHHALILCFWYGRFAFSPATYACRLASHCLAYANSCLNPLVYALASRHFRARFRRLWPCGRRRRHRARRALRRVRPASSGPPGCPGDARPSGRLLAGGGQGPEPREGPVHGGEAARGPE

[32] = cells; format: functional, cell-based; settings: HEK-CNG
[33] = half-maximal inhibitory concentration for glucagon-like peptide-1 release, STC-1 cell line, dose-response (AID 1117345); format: functional, cell-based
[34] = Glucagon-like peptide 1 release potency, NCI-H716 cell line, dose-response, half-maximal inhibitory concentration (AID 1117344); format: functional, cell-based
[35] = target: Albumin (Bos taurus, UniProt P02769); assay: Counterscreen for inhibitors of T-cell receptor (TCR)-CD3 interaction: Fluorescence-based biochemical high throughput dose response assay to identify inhibitors of T-cell receptor (TCR)-CD3 interaction using a TAMRA-labeled BSA probe.; format: functional
Albumin, sequence (P02769 whole entry): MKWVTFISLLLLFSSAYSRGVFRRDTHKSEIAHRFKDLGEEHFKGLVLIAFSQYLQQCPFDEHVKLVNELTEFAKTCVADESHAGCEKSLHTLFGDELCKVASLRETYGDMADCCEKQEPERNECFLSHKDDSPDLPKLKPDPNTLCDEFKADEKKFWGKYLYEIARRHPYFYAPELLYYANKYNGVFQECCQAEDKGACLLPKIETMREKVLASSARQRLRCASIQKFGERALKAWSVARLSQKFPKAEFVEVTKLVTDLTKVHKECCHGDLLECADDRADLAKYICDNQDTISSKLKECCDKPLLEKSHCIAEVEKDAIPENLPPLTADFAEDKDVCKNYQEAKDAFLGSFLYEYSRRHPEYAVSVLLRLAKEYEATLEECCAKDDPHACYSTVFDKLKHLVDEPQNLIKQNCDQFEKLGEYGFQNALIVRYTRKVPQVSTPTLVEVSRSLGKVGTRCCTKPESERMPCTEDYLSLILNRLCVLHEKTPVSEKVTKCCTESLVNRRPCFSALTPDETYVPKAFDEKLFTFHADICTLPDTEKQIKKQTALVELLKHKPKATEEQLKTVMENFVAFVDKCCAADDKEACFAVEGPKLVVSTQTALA

Kallikrein-7, sequence (P49862 whole entry): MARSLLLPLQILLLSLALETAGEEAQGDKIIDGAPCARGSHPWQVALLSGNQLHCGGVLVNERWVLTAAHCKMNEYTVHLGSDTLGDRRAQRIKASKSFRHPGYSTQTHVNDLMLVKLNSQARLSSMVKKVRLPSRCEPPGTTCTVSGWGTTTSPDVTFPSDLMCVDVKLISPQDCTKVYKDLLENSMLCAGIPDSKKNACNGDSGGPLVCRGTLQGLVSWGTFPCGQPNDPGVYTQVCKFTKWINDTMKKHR
Metabotropic glutamate receptor 3, sequence (P31422 whole entry): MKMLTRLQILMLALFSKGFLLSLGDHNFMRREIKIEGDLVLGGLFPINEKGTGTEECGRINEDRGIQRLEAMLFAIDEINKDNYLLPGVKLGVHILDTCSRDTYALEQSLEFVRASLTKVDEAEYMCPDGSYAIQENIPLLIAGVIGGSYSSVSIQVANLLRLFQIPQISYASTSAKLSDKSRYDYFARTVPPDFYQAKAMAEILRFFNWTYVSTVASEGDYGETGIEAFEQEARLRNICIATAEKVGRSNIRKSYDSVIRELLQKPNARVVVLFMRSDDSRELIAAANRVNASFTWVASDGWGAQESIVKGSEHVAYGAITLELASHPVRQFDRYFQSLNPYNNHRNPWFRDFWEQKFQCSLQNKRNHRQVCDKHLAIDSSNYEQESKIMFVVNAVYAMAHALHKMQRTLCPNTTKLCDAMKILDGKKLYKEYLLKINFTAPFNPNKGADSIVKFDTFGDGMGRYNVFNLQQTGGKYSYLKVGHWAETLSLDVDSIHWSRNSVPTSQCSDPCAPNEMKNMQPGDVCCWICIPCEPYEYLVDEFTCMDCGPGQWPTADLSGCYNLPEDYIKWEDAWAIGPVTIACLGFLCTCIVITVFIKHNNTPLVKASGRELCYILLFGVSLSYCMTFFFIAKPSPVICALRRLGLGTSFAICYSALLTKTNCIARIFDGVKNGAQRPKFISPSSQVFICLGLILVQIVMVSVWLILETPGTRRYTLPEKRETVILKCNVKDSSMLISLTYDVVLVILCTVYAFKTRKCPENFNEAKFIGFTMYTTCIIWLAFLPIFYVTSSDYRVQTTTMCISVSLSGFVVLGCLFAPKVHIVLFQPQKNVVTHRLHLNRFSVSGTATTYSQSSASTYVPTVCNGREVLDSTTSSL
Ephrin type-A receptor 4, sequence (Q03137 whole entry): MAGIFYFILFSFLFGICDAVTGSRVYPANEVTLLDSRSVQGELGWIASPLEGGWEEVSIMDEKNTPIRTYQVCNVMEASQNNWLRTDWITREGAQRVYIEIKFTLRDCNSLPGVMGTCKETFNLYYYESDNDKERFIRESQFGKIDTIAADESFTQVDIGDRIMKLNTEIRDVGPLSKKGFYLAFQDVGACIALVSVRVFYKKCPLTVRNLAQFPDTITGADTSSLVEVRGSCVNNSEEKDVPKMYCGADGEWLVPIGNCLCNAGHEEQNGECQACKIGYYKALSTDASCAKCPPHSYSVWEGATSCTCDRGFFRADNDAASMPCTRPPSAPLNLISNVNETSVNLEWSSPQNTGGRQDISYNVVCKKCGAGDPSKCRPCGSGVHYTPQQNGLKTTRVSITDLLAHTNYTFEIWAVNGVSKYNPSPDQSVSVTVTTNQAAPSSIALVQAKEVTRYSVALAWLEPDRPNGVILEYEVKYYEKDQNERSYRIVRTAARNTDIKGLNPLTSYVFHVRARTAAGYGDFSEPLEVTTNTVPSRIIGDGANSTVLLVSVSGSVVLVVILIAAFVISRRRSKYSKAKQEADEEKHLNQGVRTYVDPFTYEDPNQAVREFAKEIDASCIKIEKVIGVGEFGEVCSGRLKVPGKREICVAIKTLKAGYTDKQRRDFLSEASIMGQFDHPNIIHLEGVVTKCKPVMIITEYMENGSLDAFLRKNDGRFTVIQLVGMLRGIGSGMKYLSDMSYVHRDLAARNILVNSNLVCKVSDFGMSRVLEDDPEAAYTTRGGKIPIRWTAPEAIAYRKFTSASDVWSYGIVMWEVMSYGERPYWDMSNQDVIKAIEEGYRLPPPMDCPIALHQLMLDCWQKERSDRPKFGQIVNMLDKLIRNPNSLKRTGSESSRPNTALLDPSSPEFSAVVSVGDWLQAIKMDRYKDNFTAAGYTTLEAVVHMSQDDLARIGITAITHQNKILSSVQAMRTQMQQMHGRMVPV
Mitogen-activated protein kinase 10, sequence (P53779 whole entry, the tested form may be a part): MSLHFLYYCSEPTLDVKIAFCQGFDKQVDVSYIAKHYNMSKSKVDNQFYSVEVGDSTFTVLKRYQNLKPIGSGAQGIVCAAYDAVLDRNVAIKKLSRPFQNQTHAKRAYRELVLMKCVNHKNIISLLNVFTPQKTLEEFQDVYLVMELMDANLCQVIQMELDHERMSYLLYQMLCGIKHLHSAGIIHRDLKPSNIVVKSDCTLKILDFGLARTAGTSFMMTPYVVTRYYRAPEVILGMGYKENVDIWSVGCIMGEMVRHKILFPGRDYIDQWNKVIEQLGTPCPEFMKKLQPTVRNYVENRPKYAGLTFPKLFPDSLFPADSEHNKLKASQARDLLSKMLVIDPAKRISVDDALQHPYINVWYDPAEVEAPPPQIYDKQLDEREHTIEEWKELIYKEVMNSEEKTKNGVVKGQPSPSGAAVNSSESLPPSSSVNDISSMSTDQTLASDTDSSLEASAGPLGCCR
5-hydroxytryptamine receptor 1A, sequence (P08908 whole entry, the tested form may be a part): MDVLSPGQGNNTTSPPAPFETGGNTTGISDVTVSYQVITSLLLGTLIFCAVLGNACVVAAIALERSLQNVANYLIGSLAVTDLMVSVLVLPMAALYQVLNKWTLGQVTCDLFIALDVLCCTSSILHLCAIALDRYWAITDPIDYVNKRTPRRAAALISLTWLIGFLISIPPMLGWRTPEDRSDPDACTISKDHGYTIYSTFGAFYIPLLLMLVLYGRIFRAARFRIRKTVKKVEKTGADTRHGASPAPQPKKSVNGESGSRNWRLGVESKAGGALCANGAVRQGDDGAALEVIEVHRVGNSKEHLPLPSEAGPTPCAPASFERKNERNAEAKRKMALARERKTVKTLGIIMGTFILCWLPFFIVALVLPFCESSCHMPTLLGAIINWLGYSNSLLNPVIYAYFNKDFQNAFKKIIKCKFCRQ
Nonstructural protein 1, sequence (Q194T2 whole entry): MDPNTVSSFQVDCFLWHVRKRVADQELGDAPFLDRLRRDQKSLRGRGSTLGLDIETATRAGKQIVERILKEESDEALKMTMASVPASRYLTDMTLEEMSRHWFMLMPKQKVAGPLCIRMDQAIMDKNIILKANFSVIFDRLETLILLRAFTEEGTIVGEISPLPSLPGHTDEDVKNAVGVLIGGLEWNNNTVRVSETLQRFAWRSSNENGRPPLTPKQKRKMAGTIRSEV
Paired box protein Pax-8, sequence (Q06710 whole entry): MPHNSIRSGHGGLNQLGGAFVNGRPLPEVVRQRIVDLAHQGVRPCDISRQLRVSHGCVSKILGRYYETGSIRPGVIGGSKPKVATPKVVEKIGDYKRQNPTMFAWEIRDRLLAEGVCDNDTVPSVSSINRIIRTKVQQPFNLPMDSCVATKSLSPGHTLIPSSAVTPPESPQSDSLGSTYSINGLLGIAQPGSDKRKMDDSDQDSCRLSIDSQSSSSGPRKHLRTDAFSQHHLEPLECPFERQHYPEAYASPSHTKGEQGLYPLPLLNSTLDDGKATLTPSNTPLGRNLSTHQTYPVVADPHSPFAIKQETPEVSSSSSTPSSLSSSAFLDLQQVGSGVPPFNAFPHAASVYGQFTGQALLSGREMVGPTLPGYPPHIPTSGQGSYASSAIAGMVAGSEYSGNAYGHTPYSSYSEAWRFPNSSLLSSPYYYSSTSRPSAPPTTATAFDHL
COUP transcription factor 2, sequence (P24468 whole entry): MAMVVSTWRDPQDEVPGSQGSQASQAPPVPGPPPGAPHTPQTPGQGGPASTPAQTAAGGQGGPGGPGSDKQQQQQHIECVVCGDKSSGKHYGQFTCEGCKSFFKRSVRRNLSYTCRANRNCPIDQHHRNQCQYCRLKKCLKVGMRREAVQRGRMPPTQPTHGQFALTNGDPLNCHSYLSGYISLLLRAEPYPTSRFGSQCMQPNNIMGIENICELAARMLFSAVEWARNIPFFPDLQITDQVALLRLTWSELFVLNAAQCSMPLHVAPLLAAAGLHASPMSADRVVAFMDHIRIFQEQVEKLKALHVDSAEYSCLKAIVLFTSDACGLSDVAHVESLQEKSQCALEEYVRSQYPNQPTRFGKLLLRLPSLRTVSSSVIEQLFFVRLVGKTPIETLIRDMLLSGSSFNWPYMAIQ

Cc1cccc2c(C(=O)O)c3cccc(C)c3nc12
EC50 [1]: > 69.5 µM (inactive)

CCOC(=O)CC1CCCCN1Cc1cn(C)nc1-c1ccc2c(c1)OCCO2 (configuration not stated)
IC50 [2]: > 109 µM (inactive) | IC50 [3]: > 83.3 µM (inactive)

CCOC(=O)N1CCC(Nc2ncnc3c2cnn3-c2ccc(C)cc2C)CC1
IC50 [4]: 13.6 µM (inactive)

CN(C)c1cc2c(c(N(C)C)c1)C(=O)c1ccccc1C2=O
IC50 [5]: 2.13 µM (active) | IC50 [6]: 14.1 µM (active)

COc1ccc(-c2[nH]nc(C(F)(F)F)c2-c2cc3ccccc3o2)c(O)c1
EC50 [7]: 3.24 µM (active) | EC50 [8]: 3.68 µM (active) | IC50 [9]: > 69.5 µM (inactive)

O=C(CSc1nc2ccccc2[nH]1)NCc1ccco1
IC50 [2]: > 109 µM (inactive) | IC50 [3]: > 83.3 µM (inactive)

COc1ncc(-c2ccc3cc(C(=O)N4CCCC(CO)C4)ccc3c2)cn1 (configuration not stated)
pIC50 [10]: 5.66

c1ccc(-c2nc(NCCN3CCOCC3)c3ccccc3n2)cc1
IC50 [11]: 25.4 µM (inactive) | IC50 [12]: 53.5 µM (inactive)

c1ccc(-c2nc(NCCN3CCCCC3)c3ccccc3n2)cc1
IC50 [11]: 64.3 µM (inactive) | IC50 [12]: > 80 µM (inactive)

O=C(c1ccc2cc(-c3ccccc3OCc3ccccc3)ccc2c1)N1CCCC(CO)C1 (configuration not stated)
IC50 [10]: 9.35 µM (active)

Cc1cccc2cc(/C=C3\N=C(c4ccccc4)OC3=O)c(N3CCOCC3)nc12
IC50 [13]: 1.35 µM (active) | EC50 [14]: 0.685 µM (active)

CC1Cc2ccccc2N1Cc1nc(O)c2ccc(C(F)(F)F)cc2n1 (configuration not stated)
IC50 [13]: > 100 µM (not active) | AC50 [15]: 0.0282 µM (inconclusive) | AC50 [16]: 25.1 µM (inconclusive)

CCc1nn(C(C)C(=O)NCCN2CCN(c3cccc(C)c3C)CC2)c(=O)c2cc3occc3n12 (configuration not stated)
EC50 [17]: > 50 µM (not active)

COC1(OC)N=C(N)C2(C#N)C(c3ccc4c(c3)OCO4)C12C#N (configuration not stated)
EC50 [18]: 59.9 µM (active) | EC50 [19]: 64.3 µM (active) | IC50 [20]: > 93.1 µM (not active)

CCCc1nc2c(C)cc(Br)cn2c1Cc1ccc(C)cc1
EC50 [21]: > 67.5 µM (inactive) | EC50 [22]: > 67.5 µM (inactive)

COc1ccc(/C=C/CN2CCCC(CCC(=O)NCc3ccc(F)c(F)c3)C2)cc1 (configuration not stated)
EC50 [23]: < 0.1 µM (active) | EC50 [24]: > 60 µM (not active) | EC50 [25]: 0.037 µM (active)

C[C@@H]1CN([C@H](C)CO)C(=O)c2cc(NC(=O)Cc3ccccc3)ccc2O[C@@H](C)CCCCO[C@H]1CN(C)Cc1ccc(C(F)(F)F)cc1
AC50 [26]: 3.98 µM (active) | AC50 [27]: 3.83 µM (active) | AC50 [28]: 0.795 µM (active) | AC50 [29]: 13.8 µM (active) | AC50 [30]: 63.1 µM (active)

CC(=O)OC(C)C[N+](C)(C)C (configuration not stated) [METHACHOLINE CHLORIDE]
IC50 [31]: 7.36 µM (active) | EC50 [32]: > 30 µM (inactive) | IC50 [33]: > 40 µM (inactive) | IC50 [34]: > 40 µM (inactive)

CC(C)N(C[C@@H]1N[C@@H](CO)[C@@H]1c1ccccc1)S(=O)(=O)c1ccccc1
AC50 [28]: 0.473 µM (active) | AC50 [29]: 32.2 µM (active)

CCOC(=O)[C@@H](N)CS
IC50 [33]: 14.3 µM (inactive) | IC50 [34]: > 40 µM (inactive)

Cc1cc(C(=O)Cn2nnc3ccccc3c2=O)c(C)n1Cc1cccs1
EC50 [21]: > 67.6 µM (inactive) | EC50 [22]: > 67.6 µM (inactive)

COc1ccc(NS(=O)(=O)c2cc(NC(=O)/C=C/c3cc(OC)c(OC)c(OC)c3)ccc2N2CCCCC2)cc1
EC50 [23]: 1.63 µM (active) | EC50 [24]: > 60 µM (not active) | IC50 [35]: > 94.1 µM (inactive)

Cn1cc(/C(Cc2ccccc2)=N\O)c2ccccc21
EC50 [17]: > 50 µM (not active)

O=C(NCCCN1CCOCC1)c1cc2nc(-c3ccco3)cc(C(F)(F)F)n2n1
EC50 [1]: > 69.5 µM (inactive)

Fc1cc2nccnc2cc1N1CCSCC1
IC50 [20]: 50.2 µM (not active)
